Measurements as given in patent publication US20220106289A1, “NLRP3 INHIBITORS” (INFLAZOME LIMITED, priority 2018, published 2022).
Where a name gives a salt, the structure may show the parent alone.

What follows are compounds tested against NLRP3 (Homo sapiens, UniProt Q96P20) (assay: THP-1 cells pyroptosis assay (LPS + nigericin, resazurin read-out)). Conditions: NLRP3 inhibitory activity, 1 μg/ml LPS, 5 μM nigericin.
Format: cell-based
Set-up: Seed THP-1 cells (25,000 cells/well) containing 1.0 μg/ml LPS; host or cells: THP-1 cells
Method: The cells were routinely passaged and grown to confluency (˜10^6 cells/ml). On the day of the experiment, THP-1 cells were harvested and resuspended into RPMI medium (without FBS). The cells were then counted and viability (>90%) checked by Trypan blue (Sigma #T8154). […] To this diluted cell solution was added LPS (Sigma #L4524) to give a 1 μg/ml Final Assay Concentration (FAC). 40 μl of the final preparation was aliquoted into each well of a 96-well plate. The plate thus prepared was used for compound screening. The following method step-by-step assay was followed for compound screening. • 1. […] Incubate for 3 hrs at 37° C., 5% CO2 • 4. Add 5 μl nigericin (Sigma #N7143) (FAC 5 μM) to all wells • 5. Incubate for 1 hr at 37° C., 5% CO2 • 6. At the end of the incubation period, spin plates at 300×g for 3 mins and remove supernatant • 7. Then add 50 μl of resazurin (Sigma #R7017) (FAC 100 μM resazurin in RPMI medium without FBS) and incubate plates for a further 1-2 hrs at 37° C. and 5% CO2 • 8.

NLRP3, sequence (Q96P20 whole entry): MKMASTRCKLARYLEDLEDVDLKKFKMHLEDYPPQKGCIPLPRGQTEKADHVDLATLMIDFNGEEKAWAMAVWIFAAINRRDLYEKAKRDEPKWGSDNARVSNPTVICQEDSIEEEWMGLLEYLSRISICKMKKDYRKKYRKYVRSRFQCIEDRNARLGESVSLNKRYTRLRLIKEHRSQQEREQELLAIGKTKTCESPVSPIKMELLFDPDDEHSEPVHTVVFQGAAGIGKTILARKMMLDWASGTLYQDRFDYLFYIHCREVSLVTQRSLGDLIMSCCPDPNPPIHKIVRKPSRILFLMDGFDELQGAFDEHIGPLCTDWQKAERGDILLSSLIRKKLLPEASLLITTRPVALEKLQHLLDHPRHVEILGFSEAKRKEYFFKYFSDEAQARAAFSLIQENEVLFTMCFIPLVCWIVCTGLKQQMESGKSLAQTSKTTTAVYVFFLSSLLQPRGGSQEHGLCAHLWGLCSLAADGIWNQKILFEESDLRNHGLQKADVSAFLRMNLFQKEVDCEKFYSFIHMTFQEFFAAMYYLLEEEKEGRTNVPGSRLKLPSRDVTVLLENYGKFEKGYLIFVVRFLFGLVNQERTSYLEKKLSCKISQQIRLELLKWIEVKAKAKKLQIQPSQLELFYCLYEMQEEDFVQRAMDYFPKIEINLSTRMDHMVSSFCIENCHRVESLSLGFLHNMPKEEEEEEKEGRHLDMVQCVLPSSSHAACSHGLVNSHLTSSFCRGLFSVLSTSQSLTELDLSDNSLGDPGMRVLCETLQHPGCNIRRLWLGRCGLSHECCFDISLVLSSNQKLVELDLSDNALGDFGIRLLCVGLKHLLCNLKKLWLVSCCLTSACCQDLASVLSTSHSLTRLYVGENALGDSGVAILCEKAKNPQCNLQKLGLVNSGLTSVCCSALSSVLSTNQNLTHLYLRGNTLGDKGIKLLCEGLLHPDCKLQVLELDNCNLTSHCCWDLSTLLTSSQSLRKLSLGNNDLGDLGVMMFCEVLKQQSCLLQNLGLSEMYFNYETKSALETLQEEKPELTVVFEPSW

| Compound | IC50 |
| --- | --- |
| COc1cc(-c2cc(F)cc(C(C)C)c2CCC(=O)NS(=O)(=O)c2ccc(CN(C)C)cc2)ccn1 [Example 4, N-((4-((Dimethylamino)methyl)phenyl)sulfonyl)-3-(4-fluoro-2-isopropyl-6-(2-methoxypyridin-4-yl)phenyl)propanamide, potassium salt] | 5 to 10 µM |
| COc1cc(-c2ccc3c(c2NC(=O)N[S+]([O-])c2ccn(C(C)C)n2)CCC3)ccn1 (centres unmarked) [Example 23, 1-Isopropyl-N-((5-(2-methoxypyridin-4-yl)-2,3-dihydro-1H-inden-4-yl)carbamoyl)-1H-pyrazole-3-sulfinamide] | 1 to 5 µM |
| COc1cc(-c2ccc3c(c2NC(=O)NCc2nnn[nH]2)CCC3)ccn1 [Example 88, 1((1H-Tetrazol-5-yl)methyl)-3-(5-(2-methoxypyridin-4-yl)-2,3-dihydro-1H-inden-4-yl)urea] | 5 to 10 µM |
| Cc1nn(C)cc1S(=O)(=O)NC(=O)Nc1c2c(cc3c1CCC3)CCC2 [Example 80, N-((1,2,3,5,6,7-Hexahydro-s-indacen-4-yl)carbamoyl)-1,3-dimethyl-1H-pyrazole-4-sulfonamide, sodium salt] | 0.5 to 1 µM |
| O=C(Nc1c2c(cc3c1CCC3)CCC2)NS(=O)(=O)c1cnn(CC2CC2)c1 [Example 44, 1-(Cyclopropylmethyl)-N-((1,2,3,5,6,7-hexahydro-s-indacen-4-yl)carbamoyl)-1H-pyrazole-4-sulfonamide, sodium salt] | < 0.25 µM |
| COc1cc(-c2ccc3c(c2CC(=O)NS(=N)(=O)C2CN(C(C)C)C2)CCC3)ccn1 (centres unmarked) [Example 25, N-(1-Isopropylazetidine-3-sulfonimidoyl)-2-(5-(2-methoxypyridin-4-yl)-2,3-dihydro-1H-inden-4-yl)acetamide] | 5 to 10 µM |
| COc1cc(-c2cc(F)cc(C(C)C)c2CC(=O)Nc2ncco2)ccn1 [Example 95, 2-(4-Fluoro-2-isopropyl-6-(2-methoxypyridin-4-yl)phenyl)-N-(oxazol-2-yl)acetamide] | 5 to 10 µM |
| CC(C)OS(=O)(=O)NC(=O)Nc1c2c(cc3c1CCC3)CCC2 [Example 87, Isopropyl (1,2,3,5,6,7-hexahydro-s-indacen-4-yl)carbamoylsulfamate, sodium salt] | 1 to 5 µM |
| CC(C)n1ccc(S(=O)(=O)NC(=O)Nc2c3c(c(C#N)c4c2CCC4)CCC3)n1 [Example 37, N-((8-Cyano-1,2,3,5,6,7-hexahydro-s-indacen-4-yl)carbamoyl)-1-isopropyl-1H-pyrazole-3-sulfonamide] | 0.25 to 0.5 µM |
| CC(C)c1cc(F)cc2c1C(C(=O)NS(=O)(=O)c1cnn(C3CC3)c1)CC2(C)C (centres unmarked) [Example 7, N-((1-Cyclopropyl-1H-pyrazol-4-yl)sulfonyl)-5-fluoro-7-isopropyl-3,3-dimethyl-2,3-dihydro-1H-indene-1-carboxamide] | 5 to 10 µM |
| CC(C)c1cc(F)cc(C(C)C)c1CC(=O)NS(=O)(=O)c1cc(C(C)(C)O)n(C)n1 [Example 32, 2-(4-Fluoro-2,6-diisopropylphenyl)-N-((5-(2-hydroxypropan-2-yl)-1-methyl-1H-pyrazol-3-yl)sulfonyl)acetamide, ammonium salt] | 1 to 5 µM |
| Cc1cc(Br)cc(CC(=O)NS(=O)(=O)c2cc(C(C)(C)O)co2)c1 [Example 94, 2-(3-Bromo-5-methylphenyl)-N-((4-(2-hydroxypropan-2-yl)furan-2-yl)sulfonyl)acetamide] | 1 to 5 µM |
| CC(C)c1cc(F)cc(C(C)C)c1NC(=O)NS(=O)(=O)c1ccn(CC(F)(F)F)n1 [Example 78, N-((4-Fluoro-2,6-diisopropylphenyl)carbamoyl)-1-(2,2,2-trifluoroethyl)-1H-pyrazole-3-sulfonamide, sodium salt] | 1 to 5 µM |
| CC(C)(O)c1coc(S(=O)(=O)NC(=O)Cn2ncc3ccccc32)c1 [Example 89, N-((4-(2-Hydroxypropan-2-yl)furan-2-yl)sulfonyl)-2-(1H-indazol-1-yl)acetamide] | 1 to 5 µM |
| CC(C)c1cc(-c2ccccc2)cc(C(C)C)c1NC(=O)NS(=O)(=O)c1ccn(C(C)C)n1 [Example 73, N-((3,5-Diisopropyl-[1,1′-biphenyl]-4-yl)carbamoyl)-1-isopropyl-1H-pyrazole-3-sulfonamide] | 5 to 10 µM |
| CC(O)c1cc(S(=O)(=O)NC(=O)Nc2c3c(cc4c2CCC4)CCC3)nn1C (centres unmarked) [Example 74, N-((1,2,3,5,6,7-Hexahydro-s-indacen-4-yl)carbamoyl)-5-(1-hydroxyethyl)-1-methyl-1H-pyrazole-3-sulfonamide] | 0.5 to 1 µM |
| CC(C)c1cccc(C(C)C)c1NC(=O)NS(=O)(=O)c1cnn(CC(F)(F)F)c1 [Example 76, N-((2,6-Diisopropylphenyl)carbamoyl)-1-(2,2,2-trifluoroethyl)-1H-pyrazole-4-sulfonamide] | 5 to 10 µM |
| CC(C)c1cccc(O[C@H]2CCOC2)c1NC(=O)NS(=O)(=O)c1ccn(C(C)C)n1 [Example 86, (S)-1-Isopropyl-N-((2-isopropyl-6-((tetrahydrofuran-3-yl)oxy)phenyl)carbamoyl)-1H-pyrazole-3-sulfonamide] | 1 to 5 µM |
| CC(C)c1cc(F)cc(C(F)(F)F)c1NC(=O)NS(=O)(=O)c1ccn(C(C)C)n1 [Example 70, N-((4-Fluoro-2-isopropyl-6-(trifluoromethyl)phenyl)carbamoyl)-1-isopropyl-1H-pyrazole-3-sulfonamide] | 5 to 10 µM |
| CC(C)c1cc(F)cc2c1C(C(=O)NS(=O)(=O)c1ccn(C(C)C)n1)CC2(C)C (centres unmarked) [Example 10, 5-Fluoro-7-isopropyl-N-((1-isopropyl-1H-pyrazol-3-yl)sulfonyl)-3,3-dimethyl-2,3-dihydro-1H-indene-1-carboxamide, potassium salt (rotamer P2)] | 5 to 10 µM |
| CC(C)c1cc(F)cc2c1C(C(=O)NS(=O)(=O)c1cc(C(C)(C)O)cs1)CC2(C)C (single isomer, unassigned) [Example 9, 5-Fluoro-N-((4-(2-hydroxypropan-2-yl)thiophen-2-yl)sulfonyl)-7-isopropyl-3,3-dimethyl-2,3-dihydro-1H-indene-1-carboxamide, potassium salt (rotamer P2)] | 5 to 10 µM |
| CC(C)c1cc(F)cc(C(C)C)c1CC(=O)NS(=O)(=O)c1ccn(C(C)C)n1 [Example 26, 2-(4-Fluoro-2,6-diisopropylphenyl)-N-((1-isopropyl-1H-pyrazol-3-yl)sulfonyl)acetamide] | 1 to 5 µM |
| CC(C)c1cc(F)cc(C(C)C)c1CC(=O)NS(=O)(=O)c1cc(C(C)(C)O)n(C(C)C)n1 [Example 29, 2-(4-Fluoro-2,6-diisopropylphenyl)-N-((5-(2-hydroxypropan-2-yl)-1-isopropyl-1H-pyrazol-3-yl)sulfonyl)acetamide] | 5 to 10 µM |
| CC(C)c1cc(F)cc(C(C)C)c1NC(=O)NS(=O)(=O)c1cc(C(C)(C)O)n(C(C)C)n1 [Example 50, N-((4-Fluoro-2,6-diisopropylphenyl)carbamoyl)-5-(2-hydroxypropan-2-yl)-1-isopropyl-1H-pyrazole-3-sulfonamide] | 0.25 to 0.5 µM |
| CC(C)c1cc(C#N)cc(C(C)C)c1NC(=O)NS(=O)(=O)c1cnn(C(C)C)c1 [Example 75, N-((4-Cyano-2,6-diisopropylphenyl)carbamoyl)-1-isopropyl-1H-pyrazole-4-sulfonamide] | 1 to 5 µM |
| Cc1cc(C(C)(C)O)ccc1S(=O)(=O)NC(=O)C1CC(C)(C)c2cc(F)cc(C(C)C)c21 (centres unmarked) [Example 1, 5-Fluoro-N-((4-(2-hydroxypropan-2-yl)-2-methylphenyl)sulfonyl)-7-isopropyl-3,3-dimethyl-2,3-dihydro-1H-indene-1-carboxamide] | 5 to 10 µM |
